Measured values reported in the Biogen ADME set (Fang et al. 2023).
Converted amounts (≈) assume the structure as drawn.

Conditions: for aqueous solubility: pH 6.8

| SMILES | MDR1-MDCK efflux ratio | fraction unbound, rat plasma | intrinsic clearance, human liver microsomes | intrinsic clearance, rat liver microsomes | aqueous solubility | fraction unbound, human plasma |
| --- | --- | --- | --- | --- | --- | --- |
| CONC(=O)c1c2c(nc3ccccc13)CCC2 |  |  | ≤ 4.74 mL/min/kg | ≤ 10.7 mL/min/kg |  |  |
| CC(C)c1cc(C(=O)Nc2ncccc2Cl)no1 |  |  | 88.3 mL/min/kg | 65.1 mL/min/kg |  |  |
| Cn1ccc(CSc2n[nH]c(-c3cc(F)cc(F)c3)n2)n1 | 0.58 |  | 12.9 mL/min/kg | 131 mL/min/kg |  |  |
| Cc1nn(-c2ccc(F)cc2)c2ncc(C(=O)Nc3nc(C4CC4)cs3)cc12 |  |  | 5.68 mL/min/kg | 32.4 mL/min/kg | 5.35 µg/mL (≈ 13.6 µM) |  |
| COc1cc2ncn(-c3cc(OCc4ccccc4S(C)(=O)=O)c(C#N)s3)c2cc1OC | 8.01 |  |  |  | 0.3 µg/mL (≈ 0.639 µM) |  |
| COCCNc1ncnc2ccsc12 | 0.711 |  | ≤ 4.74 mL/min/kg | 22.9 mL/min/kg | 40.8 µg/mL (≈ 195 µM) |  |
| Cc1cc(C)nc(NS(=O)(=O)c2ccc(NC(=O)/C=C/c3ccc([N+](=O)[O-])s3)cc2)n1 |  |  | 14 mL/min/kg | 57.3 mL/min/kg |  |  |
| CS(=O)(=O)N1CCc2c(cccc2NC(=O)c2ccc(F)cc2)C1 | 6.4 |  |  |  | 0.37 µg/mL (≈ 1.06 µM) |  |
| COc1ccncc1NCc1cscn1 |  |  | ≤ 4.74 mL/min/kg | 25.4 mL/min/kg |  |  |
| Cc1nnc2ccc(NCCOC3CCCCCC3)nn12 | 1.54 |  | 49.9 mL/min/kg | 901 mL/min/kg |  |  |
| COc1ccc(N2CCCN(CC3CCN(C(=O)C4CC4)CC3)CC2)cc1 | 1.11 |  | 5.03 mL/min/kg | 50.9 mL/min/kg | 59.7 µg/mL (≈ 161 µM) |  |
| CCCOc1c2c(nc3cc(C4CCOCC4)nn13)CCC2 | 22.3 |  | ≤ 4.74 mL/min/kg | 16.1 mL/min/kg |  |  |
| COc1cccc(C(=O)Nc2nccs2)c1 | 0.562 |  | 109 mL/min/kg | 605 mL/min/kg |  |  |
| CN1CC(=O)N(CCCC(=O)Nc2cccc(C#Cc3cccs3)c2)C1=O | 4.28 |  | 19.7 mL/min/kg | 738 mL/min/kg | 43.2 µg/mL (≈ 113 µM) |  |
| CC(C)OC(=O)N1CCC(Oc2ncnc3c2cnn3-c2ccc(S(C)(=O)=O)cc2F)CC1 | 1.61 |  |  |  |  |  |
| Cc1noc(NCc2ccc(F)cc2C)n1 | 0.589 |  | ≤ 4.74 mL/min/kg | 68.3 mL/min/kg |  |  |
| CCOc1cccc(CNCCc2c[nH]c3ccccc23)c1 | 0.628 |  | 90.8 mL/min/kg | 1330 mL/min/kg | 73 µg/mL (≈ 248 µM) |  |
| Cc1ccccc1N1C(=O)c2ccc(C(=O)NC(C)(C)C)cc2C1=O |  |  |  |  | 49.9 µg/mL (≈ 148 µM) |  |
| CCc1nnc(NC(=O)Cc2c(C)noc2C)s1 | 12.8 |  | ≤ 4.74 mL/min/kg | ≤ 10.7 mL/min/kg | 44.6 µg/mL (≈ 167 µM) |  |
| Cc1n[nH]c(C)c1Cc1ccc(NCCC(C)C)cc1 | 0.61 |  | ≤ 4.74 mL/min/kg | 484 mL/min/kg | 14.7 µg/mL (≈ 54.2 µM) |  |
| Cc1oc(C)c(C(=O)N2CCNC(=O)C2)c1Br | 5.92 |  | ≤ 4.74 mL/min/kg | ≤ 10.7 mL/min/kg | 72.2 µg/mL (≈ 240 µM) |  |
| N#Cc1cc(F)c(NS(=O)(=O)c2c[nH]c3cc(Cl)ccc23)cc1F | 2.57 | 0.0056 | ≤ 4.74 mL/min/kg |  | 66.1 µg/mL (≈ 180 µM) | 0.0094 |
| Cc1ccc(-c2nc(CC(=O)NCCC(C)C)cs2)cc1 | 0.529 |  | 464 mL/min/kg | 6110 mL/min/kg | 8.17 µg/mL (≈ 27 µM) |  |
| CCc1c(C(=O)N2CC[C@@](O)(CC(C)C)[C@@H](Oc3ccc(F)cc3)C2)[nH]c2ccc(C)cc12 | 4.15 |  | 104 mL/min/kg | 1290 mL/min/kg |  |  |
| Cc1nc(N2CCNCC2)c2cnn(C)c2n1 | 15.3 |  | ≤ 4.74 mL/min/kg | 15.1 mL/min/kg |  |  |

Further lines, results first:

| MDR1-MDCK efflux ratio | fraction unbound, rat plasma | intrinsic clearance, human liver microsomes | intrinsic clearance, rat liver microsomes | aqueous solubility | fraction unbound, human plasma | SMILES |
| --- | --- | --- | --- | --- | --- | --- |
| 26 | 0.118 | 11.2 mL/min/kg | 70.8 mL/min/kg | 25.9 µg/mL (≈ 77.6 µM) |  | N#Cc1ccc2[nH]c(O)c(-c3ccc(CN4CCOCC4)cn3)c2c1 |
| 0.638 |  | 53.8 mL/min/kg | 632 mL/min/kg | 14.7 µg/mL (≈ 47.6 µM) |  | CCCn1c(=O)n(Cc2ccc(C#N)cc2F)c2ccccc21 |
| 1.33 | 0.0139 | 1250 mL/min/kg | 3870 mL/min/kg | 66.7 µg/mL (≈ 165 µM) | 0.00599 | c1ccc(Oc2cccc(CN(CCN3CCOCC3)Cc3cccnc3)c2)cc1 |
| 1.01 |  | 325 mL/min/kg | 1780 mL/min/kg | 22.2 µg/mL (≈ 67.8 µM) |  | CC(C)c1cc(CN(C)Cc2c[nH]nc2-c2ccc(F)cc2)no1 |
| 0.696 |  |  |  | 0.37 µg/mL (≈ 1.06 µM) |  | O=c1c(=O)n(-c2ccc(F)c(F)c2)ccn1Cc1ccccc1Cl |
| 2.41 |  | 52 mL/min/kg | 771 mL/min/kg | 24.1 µg/mL (≈ 74.5 µM) |  | C/C=C/CC(=O)N1CCC(c2cc(Cc3ccccc3)n[nH]2)CC1 |
|  |  | 4.93 mL/min/kg | 2200 mL/min/kg | 39.1 µg/mL (≈ 146 µM) |  | Cc1cccc(OCCn2c(N)nc3ccccc32)c1 |
|  |  |  |  | 44.5 µg/mL (≈ 153 µM) |  | N#Cc1ncn(Cc2ncc(-c3ccccc3)s2)c1C#N |
| 4.17 |  | ≤ 4.74 mL/min/kg | 54.3 mL/min/kg | 91.9 µg/mL (≈ 311 µM) |  | O=C(O)c1ccccc1-c1ccc(CN2CCCCC2)cc1 |
| 0.571 |  |  |  | 0.9 µg/mL (≈ 3.06 µM) |  | Cc1nc(-c2ccccc2)c(C(=O)Nc2ccccc2)s1 |
| 0.728 |  | 267 mL/min/kg | 5420 mL/min/kg |  |  | CN(CCOc1ccccc1)CC(=O)NCCc1ccccc1 |
| 0.607 |  | 16 mL/min/kg | 516 mL/min/kg | 43.1 µg/mL (≈ 171 µM) |  | Cc1c(C)n(Cc2ccccc2)c2ncnc(N)c12 |
| 19.3 |  | 64 mL/min/kg | ≤ 10.7 mL/min/kg | 40.4 µg/mL (≈ 122 µM) |  | CN(Cc1cnn(C)c1)C(=O)c1ccccc1-c1ccccc1C#N |
| 3.55 |  | 38 mL/min/kg | 500 mL/min/kg |  |  | COc1cccc(C)c1C(=O)N(C)CCCn1cccn1 |
| 21.4 |  | 717 mL/min/kg | 2130 mL/min/kg | 14.4 µg/mL (≈ 35.9 µM) |  | Cc1ccccc1OCCCNc1cc(Cn2c(C)nc3ccccc32)nc(N)n1 |
| 0.6 |  | 15.9 mL/min/kg | 716 mL/min/kg |  |  | CN(C)S(=O)(=O)CCCN1CCc2ccccc2CC1 |
| 6.14 |  | ≤ 4.74 mL/min/kg | 106 mL/min/kg | 3.03 µg/mL (≈ 7.88 µM) |  | O=C(NCc1ccc(F)cc1)C1CCN(C(=O)/C=C/c2ccc(F)cc2)CC1 |
|  |  | 37.8 mL/min/kg | 336 mL/min/kg |  |  | O=C(COc1cccc(-n2cncn2)c1)N1CCc2ccccc21 |
